# Reference: patent US9714234B2, “Carbazole carboxamide compounds” (Bristol-Myers Squibb Company, priority 2013, dated 2017)
# Tests used:
# Jak2 tyrosine kinase = Jak2 tyrosine kinase (Homo sapiens (Human), UniProt O60674); test: Jak2 Tyrosine Kinase Assay; type: biochemical; settings: for IC50: Jak2 1 nM, ATP 30 μM; for Ratio of Jak2/Btk IC50 values: selectivity for Btk over Jak2, larger value = more selective for Btk
# [1] = tested on: CD69 expression on B cells in human whole blood; test: Whole Blood Assays of BCR-Stimulated CD69 Expression on B Cells; type: cell-based; settings: B-cell, anti-human IgM + IL-4 stimulation, 18 h at 37° C.
# human recombinant Btk = human recombinant Btk (Homo sapiens (Human), UniProt Q06187); test: Human Recombinant Btk Enzyme Assay; type: biochemical; settings: human recombinant Btk 1 nM, ATP 20 μM
# Chain of human recombinant Btk (Q06187 whole entry): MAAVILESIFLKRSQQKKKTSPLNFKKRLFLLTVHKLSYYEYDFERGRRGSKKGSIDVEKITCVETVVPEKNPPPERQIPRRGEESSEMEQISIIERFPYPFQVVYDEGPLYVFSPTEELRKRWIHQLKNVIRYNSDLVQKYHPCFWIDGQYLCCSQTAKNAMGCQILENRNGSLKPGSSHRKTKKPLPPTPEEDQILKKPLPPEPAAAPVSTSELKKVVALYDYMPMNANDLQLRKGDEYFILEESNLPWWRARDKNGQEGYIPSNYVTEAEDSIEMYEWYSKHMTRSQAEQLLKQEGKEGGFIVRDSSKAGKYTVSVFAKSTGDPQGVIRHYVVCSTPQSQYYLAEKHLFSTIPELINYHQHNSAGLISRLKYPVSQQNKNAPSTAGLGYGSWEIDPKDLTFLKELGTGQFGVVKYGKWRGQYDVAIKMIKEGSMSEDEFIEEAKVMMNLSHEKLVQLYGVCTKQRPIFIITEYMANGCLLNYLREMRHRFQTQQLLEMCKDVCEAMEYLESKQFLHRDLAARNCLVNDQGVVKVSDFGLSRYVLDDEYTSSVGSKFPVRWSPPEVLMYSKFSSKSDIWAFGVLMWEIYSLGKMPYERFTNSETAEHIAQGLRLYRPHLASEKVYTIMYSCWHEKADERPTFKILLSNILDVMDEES
# Chain of Jak2 tyrosine kinase (O60674 whole entry): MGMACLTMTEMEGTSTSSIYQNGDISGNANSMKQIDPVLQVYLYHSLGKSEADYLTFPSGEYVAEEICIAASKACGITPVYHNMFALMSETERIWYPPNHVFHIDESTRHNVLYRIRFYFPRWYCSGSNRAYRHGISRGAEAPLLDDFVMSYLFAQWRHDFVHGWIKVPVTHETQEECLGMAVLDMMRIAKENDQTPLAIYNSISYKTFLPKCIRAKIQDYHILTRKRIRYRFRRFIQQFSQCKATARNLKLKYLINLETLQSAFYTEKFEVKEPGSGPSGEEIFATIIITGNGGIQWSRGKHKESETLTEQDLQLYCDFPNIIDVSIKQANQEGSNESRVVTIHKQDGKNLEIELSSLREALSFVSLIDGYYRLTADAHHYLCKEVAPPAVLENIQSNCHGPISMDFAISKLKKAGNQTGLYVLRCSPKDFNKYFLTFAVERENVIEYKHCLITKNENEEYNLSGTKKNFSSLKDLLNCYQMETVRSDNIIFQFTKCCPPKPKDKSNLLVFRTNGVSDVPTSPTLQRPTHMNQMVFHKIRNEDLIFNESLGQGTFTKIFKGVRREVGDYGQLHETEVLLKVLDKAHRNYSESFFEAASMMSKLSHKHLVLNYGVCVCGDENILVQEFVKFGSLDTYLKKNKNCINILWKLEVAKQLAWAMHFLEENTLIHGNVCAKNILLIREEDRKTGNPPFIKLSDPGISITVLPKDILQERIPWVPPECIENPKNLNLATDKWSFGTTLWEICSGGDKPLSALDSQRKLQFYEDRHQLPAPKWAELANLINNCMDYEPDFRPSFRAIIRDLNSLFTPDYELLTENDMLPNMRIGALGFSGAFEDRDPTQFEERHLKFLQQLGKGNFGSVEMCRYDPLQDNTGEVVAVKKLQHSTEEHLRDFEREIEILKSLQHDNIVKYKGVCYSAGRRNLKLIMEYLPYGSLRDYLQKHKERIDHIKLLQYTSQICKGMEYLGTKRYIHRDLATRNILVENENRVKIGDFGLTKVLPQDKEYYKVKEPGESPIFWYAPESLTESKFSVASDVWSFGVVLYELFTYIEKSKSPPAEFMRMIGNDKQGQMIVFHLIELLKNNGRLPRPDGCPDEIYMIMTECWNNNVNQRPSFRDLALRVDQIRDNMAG
compound,measurement,setting,value
"[2H]C([2H])([2H])n1c(=O)n(-c2cccc(-c3ccc(C(N)=O)c4[nH]c5cc(C(C)(C)O)cc(C)c5c34)c2C)c(=O)c2cccc(F)c21 (atropisomer, axis not shown) [Example 27, 4-(3-(S)-(8-Fluoro-1-methyl(d3)-2,4-dioxo-1,2-dihydroquinazolin-3(4H)-yl)-2-methylphenyl)-7-(2-hydroxypropan-2-yl)-5-methyl-9H-carbazole-1-carboxamide]",IC50,Jak2 tyrosine kinase,> 2000 nM
same,Ratio of Jak2/Btk IC50 values,Jak2 tyrosine kinase,>1700
same,IC50,[1],98 nM
same,IC50,human recombinant Btk,1.2 nM
"COc1cccn2c(=O)n(-c3cccc(-c4ccc(C(N)=O)c5[nH]c6cc(C(C)(C)O)ccc6c45)c3C)c(=O)cc12 [Example 12, 7-(2-Hydroxypropan-2-yl)-4-(3-(5-methoxy-1,3-dioxo-1H-pyrido[1,2-c]pyrimidin-2(3H)-yl)-2-methylphenyl)-9H-carbazole-1-carboxamide]",IC50,Jak2 tyrosine kinase,980 nM
same,Ratio of Jak2/Btk IC50 values,Jak2 tyrosine kinase,1900
same,IC50,[1],140 nM
same,IC50,human recombinant Btk,0.52 nM
